Laboratory results reported in ChEMBL document CHEMBL1151659, “Effects of Sesquiterpene Lactones on Development of Aedes atropalpus and Relation to Partition Coefficient” (J Nat Prod, 1985).
The source made the active and inactive calls. The calls are words filed in the database; no cut-off is given here.

Experiments:
Aedes atropalpus [1] = assay: Toxicity in second-instar Aedes atropalpus in pupal stage assessed as growth; format: functional, organism-based
[2] = Partition coefficient, log P of the compound; format: physicochemical; details: octanol/water
Aedes atropalpus [3] = assay: Toxicity in second-instar Aedes atropalpus in adult stage assessed as growth; format: functional, organism-based
Aedes atropalpus [4] = assay: Toxicity in second-instar Aedes atropalpus larvae at 10 ppm after 24 hrs; format: functional, organism-based
Aedes atropalpus [5] = assay: Toxicity in second-instar Aedes atropalpus larvae at 100 ppm after 24 hrs; format: functional, organism-based

Compound | Activity (Aedes atropalpus [1]) | logP [2] | Activity (Aedes atropalpus [3]) | Activity (Aedes atropalpus [4]) | Activity (Aedes atropalpus [5])
C[C@H]1C(=O)O[C@@H]2[C@H]1CC[C@H](C)[C@]1(O)C=CC(=O)[C@@]21C [HYMENOLIN] | Active | 1.7 | Active | – | –
C=C1C(=O)O[C@@H]2[C@H]1CC[C@H](C)[C@@H]1[C@H](O)CC(=O)[C@]12C [BIPINNATIN] | Active | 1.62 | Active | – | –
C=C1C(=O)O[C@@H]2C[C@@]3(C)CCCC(=C)[C@@H]3C[C@H]12 [ISOALANTOLACTONE] | Active | 3.42 | Active | Active | Active
C=C1C(=O)O[C@@H]2[C@H]1CC[C@H](C)[C@]1(O)C=CC(=O)[C@@]21C [PARTHENIN] | Active | 1.37 | Active | Active | Active
C=C1C(=O)O[C@@H]2[C@H]1CC[C@H](C)[C@]1(O)CCC(=O)[C@@]21C [CORONOPILIN] | Active | 1.42 | Active | – | –
C=C1C(=O)O[C@@H]2C[C@@]3(C)CCC[C@H](C)C3=C[C@H]12 [HELENINE] | Active | 3.38 | Active | Active | Active
